How the values were obtained:
IMQ induced psoriasis = tested on: IMQ induced psoriasis
Protocol: Test Item Details • 1. Dexamethasone Cat. or Batch no.: BCBM4557V (sigma) • Vehicle for dexamethasone (Veh.1): acetone:ethanol (1:1) • Dose: 0.1 mg/ear & 0.25 mg in back skin • Dose volume: 20 μL/ear & 50 μL on back skin • 2. Crisaborole: PZ0037 (Sigma) • Vehicle (Veh.1): acetone:ethanol (1:1) • Dose: 0.1 mg/ear & 0.25 mg in back skin • Dose volume: 20 μL/ear, 50 μL on back skin • 3. Compound of Formula (I) • Vehicle (Veh.1): acetone:ethanol (1:1) • Dose: 0.1 mg/ear & 0.25 mg in back skin • Dose volume: 20 μL/ear, 50 μL on back skin Dexamethasone and Test Item Preparation and Application: • Strength=5 mg/ml
Application=100 μg/20 pit per each ear+250 μg/50 μL on the back G2 to G4 receive Dexamethasone, Crisaborole or test item: Daily topical treatment (D0-D6): 0.1 mg in 20 μl per ear x both the ears+0.25 mg in 50 μl (on the back) 6-8 hrs after IMQ application.
Disease Induction: Application of 5% IMQ cream 40 mg (back) and 5 mg (per ear—Inner surface) daily from day 0-6.
Treatment: 0.5% Dexamethasone solution: 0.25 mg (back) and 0.1 mg (per ear) 8 hrs post IMQ. • Day −2—Depilation on back region • Day 0—Observations (Body weight; ear thickness using digital microcaliper) • Day 2—Observations (Body weight; ear thickness using digital microcaliper) • Day 4—Observations (Body weight; ear thickness using digital microcaliper) • Day 6—Observations (Body weight; ear thickness using digital microcaliper); Blood collection (PK) and Termination {2 hrs after last dose) • Ear collection: PK, Cytokine, MPO, Thickness • Back skin collection, scoring and thickness measurement • Histopathology (optional)
The dorsal posterior area (2 cm×2 cm) of animals is depilated using a hair trimmer. 5% Imiquimod cream: 50 mg/animal (40 mg on the shaved back+5 mg each on the inner part of right and left ear) QD is applied on days 0 to 5 (Groups 1-4).
The body weight is recorded individually for all animals at receipt, day of randomization, prior to treatment, and once in two days thereafter. The animals are observed for mortality at regular intervals.
2 hrs post compound treatment on day 6, all the animals are euthanized, and ear tissues are collected. The right ear is flash frozen in liquid nitrogen and stored at −80° C. until homogenization for MPO and cytokine estimation.
The half of the left ear is used for drug concentration measurement. The other half of the left ear tissue is used for histopathology. The back skin is collected for visual assessment (scoring) and histopathology.
MPO analysis: Snap frozen ear tissue samples are homogenized in 1× assay buffer provided in the kit. The homogenates are centrifuged at 8000 g for 10 minutes in a refrigerated centrifuge. The supernatants are discarded, and the pellet is resuspended in solubilisation buffer (1× assay buffer containing 0.5% HTABr). The samples are homogenized and subjected to three rounds of freeze thaw followed by brief sonication for 10s. The samples are centrifuged at 12,000 g for 10 minutes in a refrigerated centrifuge and the resulting supernatants are analysed for MPO levels based on a fluorometric detection kit. The Kit utilizes a non-fluorescent detection reagent, which is oxidized in the presence of hydrogen peroxide and MPO to produce its fluorescent analogue. (Enzo Life Sciences; ADI-907-029).
Histopathology: At study termination, posterior dorsal skin and ear skin samples are collected. Skin samples are processed using routine histopathological methods and 4-5 μm paraffin sections are prepared. Tissue sections (3 serial sections/animal) are stained with Hematoxylin and eosin (H&E) to evaluate acanthosis, hyper/parakeratosis and inflammatory cellular infiltration in dermis. Severity of lesions are assessed semi quantitatively on a scale of 0-4 by two independent pathologists (0—normal, 1—mild degree, 2—moderate degree, 3—severe degree and 4—extensive or multiple locations) for each parameter in a blinded manner.

Phosphodiesterase PDE9A2 = molecular target: T1, Phosphodiesterase PDE9A2 (Homo sapiens, UniProt O76083); assay: Phosphodiesterase PDE9A2 enzyme assay; assay type: biochemical; conditions: N=2, Example 3
T1 construct: host or cells: insect Sf9 cells
T1 sequence (O76083 1-533 isoform O76083-2): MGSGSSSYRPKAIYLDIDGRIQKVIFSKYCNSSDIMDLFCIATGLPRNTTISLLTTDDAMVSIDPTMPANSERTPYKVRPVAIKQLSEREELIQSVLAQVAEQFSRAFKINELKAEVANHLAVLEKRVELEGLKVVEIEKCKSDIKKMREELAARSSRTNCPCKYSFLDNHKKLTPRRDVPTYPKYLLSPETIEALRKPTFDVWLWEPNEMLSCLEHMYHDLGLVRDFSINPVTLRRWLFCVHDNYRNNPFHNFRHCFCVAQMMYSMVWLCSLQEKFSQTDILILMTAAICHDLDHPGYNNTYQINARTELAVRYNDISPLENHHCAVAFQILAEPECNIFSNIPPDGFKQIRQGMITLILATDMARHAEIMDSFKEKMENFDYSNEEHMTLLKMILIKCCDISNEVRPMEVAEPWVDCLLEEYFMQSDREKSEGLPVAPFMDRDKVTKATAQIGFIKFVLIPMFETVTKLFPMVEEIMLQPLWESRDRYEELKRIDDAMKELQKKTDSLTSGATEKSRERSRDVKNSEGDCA
Text: Reference standards are run as an integral part of each assay to ensure the validity of the results obtained. Reference Compounds: • Phosphodiesterase PDE10A2 Papaverine • Phosphodiesterase PDE11A4 Dipyridamole • Phosphodiesterase PDE1A MMPX • Phosphodiesterase PDE2A EHNA • Phosphodiesterase PDE3A Cilostamide • Phosphodiesterase PDE4A1A Rolipram • Phosphodiesterase PDE4B1 Rolipram • Phosphodiesterase PDE5A Zaprinast • Phosphodiesterase PDE6 Zaprinast • Phosphodiesterase PDE7A IBMX • Phosphodiesterase PDE7B IBMX • Phosphodiesterase PDE8A1 Dipyridamole • Phosphodiesterase PDE9A2 Zaprinast
Phosphodiesterase PDE1A; Phosphodiesterase PDE5A; and Phosphodiesterase PDE9A2: • Source: Human recombinant insect Sf9 cells • Substrate: 0.10 μM […] • Vehicle: 1.00% DMSO • Significance Crit.: ≥50% of max stimulation or inhibition • Incubation Buffer: 10 mM Tris-HCl, pH 7.2, 10 mM MgCl2, 0.05% NaN3, 0.1% phosphate-free BSA • Quantitation Method: Quantitation of Fluorescein-GMP-IMAP • Pre-Incub. Time/Temp: 15 minutes @25° C. • Incubation Time/Temp: 30 minutes @25° C.
IC50 values are determined by a non-linear, least squares regression analysis using MathIQ™ (ID Business Solutions Ltd., UK). […] Where presented, the Hill coefficient (nH), defining the slope of the competitive binding curve, is calculated using MathIQ™. […]

[1] = topical 0.5%, ear skin, vs IMQ control
[2] = topical 0.5%, maximum score 16, vs IMQ control

CNc1nc(Nc2ccccc2)nc(OCC(F)(F)C(F)F)n1 [compound of Formula (I), N^2-methyl-N^4-phenyl-6-(2,2,3,3-tetrafluoropropoxy)-1,3,5-triazine-2,4-diamine]
MPO activity in ear tissue homogenates (IMQ induced psoriasis; day 6, topical 0.5%, vs IMQ control): do not show significant inhibition
Back skin thickness (IMQ induced psoriasis; day 6 at termination, topical 0.5%, vs IMQ control): do not show significant reduction
Body weight / body weight loss (IMQ induced psoriasis; mouse, in vivo): significantly less
Cumulative clinical scores (erythema, skin thickness, scales) (IMQ induced psoriasis; topical 0.5%, back skin, maximum score 12, vs IMQ control): does not show any significant reduction
Extent of acanthosis, back skin (histopathology) (IMQ induced psoriasis; topical 0.5%, back skin, vs IMQ control): reduction
Ear thickness (IMQ induced psoriasis; topical 0.5%, daily, vs IMQ control): significant reduction in ear thickness on day 6
Cellular infiltration, ear (histopathology) (IMQ induced psoriasis; [1]): significant reduction
Extent of acanthosis, ear (histopathology) (IMQ induced psoriasis; [1]): significant reduction
Cumulative HP score of back skin (IMQ induced psoriasis; [2]): significant reduction
Overall cumulative HP scores of ear skin (IMQ induced psoriasis; [2]): significant reduction
Spleen weight or normalized spleen weight (IMQ induced psoriasis; topical 0.5%, vs IMQ control): do not show significant reduction
Cytokine levels in ear tissue homogenates (IMQ induced psoriasis; topical treatment, vs IMQ control): significant reduction in few of the proinflammatory cytokines
inhibition at 10 µM (Phosphodiesterase PDE9A2): -2%
